Experimental data from PubChem BioAssay (NCI).
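The compound was tested at five concentrations on cells cultured in 96-well plates, with a 48-hour exposure period. GI50 is the concentration that inhibits growth by half. TGI: concentration producing complete growth inhibition.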

Key:
Test in all cases: growth of human tumour cells (NCI), 48 h
[1] = system: KM12 colon
[2] = system: CAKI-1 renal
[3] = system: NCI-H522 lung
[4] = system: BT-549 breast
[5] = system: SN12C renal
[6] = system: TK-10 renal
[7] = system: HT29 colon
[8] = system: SK-MEL-28 melanoma
[9] = system: SK-MEL-2 melanoma
[10] = system: A498 renal
[11] = system: SF-268 CNS
[12] = system: ACHN renal
[13] = system: OVCAR-4 ovarian
[14] = system: HOP-62 NSCLC
[15] = system: U251 CNS
[16] = system: M14 melanoma
[17] = system: MOLT-4 leukemia
[18] = system: EKVX NSCLC
[19] = system: PC-3 prostate
[20] = system: NCI/ADR-RES ovarian
[21] = system: MCF7 breast
[22] = system: MDA-MB-435
[23] = system: K-562 leukemia
[24] = system: A549 NSCLC
[25] = system: NCI-H460 lung
[26] = system: UO-31 renal
[27] = system: HCC-2998 colon
[28] = system: UACC-257 melanoma

C=C1C(=O)O[C@H]2[C@H]1CC/C(COC(=O)CSCSCC(=O)OC/C1=C/CC[C@@]3(C)O[C@H]3[C@H]3OC(=O)C(=C)[C@@H]3CC1)=C\CC[C@@]1(C)O[C@@H]21 was tested, and the TGI [1] was 3.77 µM, the GI50 [2] was 1740 nM and the TGI [2] was 3.32 µM. The GI50 [3] was 1480 nM, the TGI [3] was 3.2 µM and the GI50 [4] was 1470 nM. It also gave a TGI [4] of 2910 nM, a GI50 [5] of 1650 nM and a TGI [5] of 3.85 µM. The GI50 [6] was 1920 nM, the TGI [6] was 3.67 µM and the GI50 [7] was 1370 nM. It also gave a TGI [7] of 2820 nM, a GI50 [8] of 1630 nM and a TGI [8] of 3.19 µM. For the same compound, the GI50 [9] was 2290 nM, the TGI [9] was 5.24 µM and the GI50 [10] was 3.83 µM. For the same compound, the TGI [10] was 14.8 µM, the GI50 [11] was 1790 nM and the TGI [11] was 4.31 µM. For the same compound, the GI50 [12] was 1330 nM, the TGI [12] was 2600 nM and the GI50 [13] was 2680 nM. It also gave a TGI [13] of 8.74 µM, a GI50 [14] of 2590 nM and a TGI [14] of 8.38 µM. For the same compound, the GI50 [15] was 1700 nM, the TGI [15] was 3.85 µM and the GI50 [16] was 1550 nM. It also gave a TGI [16] of 3.22 µM, a GI50 [17] of 505 nM and a TGI [17] of 3.09 µM. For the same compound, the GI50 [18] was 1600 nM, the TGI [18] was 3.38 µM and the GI50 [19] was 1860 nM. The TGI [19] was 4.14 µM, the GI50 [20] was 3.25 µM and the TGI [20] was 12.3 µM. It also gave a GI50 [21] of 642 nM, a TGI [21] of 2250 nM and a GI50 [22] of 2000 nM. The TGI [22] was 4.56 µM, the GI50 [23] was 554 nM and the TGI [23] was > 100 µM. For the same compound, the GI50 [24] was 2440 nM, the TGI [24] was 6.23 µM and the GI50 [25] was 2100 nM. For the same compound, the TGI [25] was 4.86 µM, the GI50 [26] was 1270 nM and the TGI [26] was 2560 nM. For the same compound, the GI50 [27] was 1800 nM, the TGI [27] was 3.46 µM and the GI50 [28] was 1890 nM. The TGI [28] was 4.67 µM.
